Data set [1] relates to patients with active noninfectious anterior uveitis. Put plainly: Phase II randomized, investigator-masked, comparator-controlled trial of NS2 eye drops in anterior uveitis. In kind it is in vivo, human. An excerpt:
Group 2 patients will alternate doses of NS2 and Pred Forte®. All patients will be instructed to maintain at least one hour between any two doses. Patients will be followed for up to 8 weeks and monitored for safety and efficacy at six scheduled visits. Efficacy will be assessed by standard ophthalmic examination procedures and response to treatment will be graded according to established uveitis scales. […] Rescue therapy will consist of therapy dosed at the clinical discretion of the treating physician. Rescued patients will receive a follow-up assessment one week after rescue, and then they will be discontinued from the study. Study drug will be self-administered by the patient (or caregiver). Subjects will be instructed to administer study drug per the treatment arm they are assigned to. Subjects randomized to NS2 or Pred Forte® will begin with one drop in the study eye four (4) times per day. Subjects randomized to the NS2 and Pred Forte® group will be instructed to administer one drop of NS2 four (4) times per day alternating with Pred Forte® two (2) times per day. Pred Forte® will be tapered weekly and continued for up to five (5) weeks as described in Table 1. Based the pre-clinical activity of NS2 in diminishing TH1 cytokines as well as ocular inflammation in a pre-clinical model of uveitis, a Phase II trial of topical ocular NS2 was initiated in patients with active noninfectious anterior uveitis, a rare but serious autoimmune-like ocular disease that can lead to blindness. The design of the anterior uveitis Phase II trial was a randomized, parallel group, investigator-masked, comparator-controlled trial to evaluate the safety and efficacy of NS2 ophthalmic solution in patients with anterior uveitis. The trial assessed signs and symptoms of anterior uveitis including anterior chamber cell counts, which are utilized as the primary endpoints in registration studies of anterior uveitis. The study was conducted at 15 clinical sites in the US. […] Pred Forte® was dosed two (2) times daily and then tapered over a 4 week period. […] Prior to un-masking, one subject in the Pred Forte® group was removed from the ITT population for a history of ovarian cancer within the past 5 years, which met exclusion criteria. […] Patients were followed for 8 weeks and monitored for safety and efficacy at six scheduled visits. Efficacy was assessed by standard ophthalmic examination procedures including slit lamp examination and response to treatment was graded according to established uveitis scales. The visit schedule included a screening randomization visit, a day 4 telephone follow-up visit, and clinic visits at week 1, 2, 4, and 8. […] Rescued patients were followed through the week 8 end of study visit.

For data set [2], the system named is patients with allergic conjunctivitis. Nature of the data set: Phase II clinical trial of topical ocular NS2 in allergic conjunctivitis. In kind it is in vivo, human. As to conditions: after a single eye drop. The text has this: Based on the proposed role of aldehydes in mediating inflammation, in addition to the pre-clinical activity of NS2 in reducing IL-5 and other TH2 cytokines, a Phase II clinical trial of a single dose of topical ocular NS2 was initiated in patients with allergic conjunctivitis, and positive results were obtained from that trial in February 2016. The trial design and data from that trial have been reported previously. […] The positive clinical effects of NS2 continued […].

A short description of data set [3]: 9-month dog study with QID (OU) topical dosing. In kind it is in vivo. The procedure:
(§1) The proposed proof of concept study will use the 0.5% dose level of NS2. This dose was selected based on the Phase 1 clinical study results under IND 104,497 and a 9-month dog study with QID (OU) dosing at 0.5%, 0.25%, and 0.1% (w/v). […] Based on the safety profile of the 9-month dog study where 0.5% NS2 was administered QID topically and the 7 day Phase 1 clinical study, a maximum treatment duration of 6-weeks was proposed.

Another data set is described as follows: in vivo. The conditions noted are these: primates. How it is done: To allow for continuous exposure, NS2 0.5% will be administered at a dose of 4 times per day in Group 1 and Group 2. Aldehydes at concentrations of 10 μM are cytotoxic in cell culture (Maeda et al., 2012, Nat Chem Biol. 8(2):170-8). […] In primates, a single dose of 0.5% NS2 results in anterior eye tissue concentrations that range from 17.6 μM just after dosing to 1.2 μM three hours post dosing.

The nature of data set [4]: Phase 1 clinical study, 7 day QID topical dosing. In kind it is in vivo, human. How it is done: as §1
The subject of data set [5] is TH1 and TH2 inflammatory cytokines, IL-10. As to conditions: systemically administered; cited from earlier work.
Another data set deals with ocular inflammation. The conditions noted are these: cited from earlier work.

These results are taken from patent publication US11129823B2 (Aldeyra Therapeutics, Inc., priority 2016, dated 2021).

`CC(C)(O)c1nc2ccc(Cl)cc2cc1N` [NS2]: the “frequency of ocular stinging and burning” value in data set [1] (NS2 treated groups) is on record as “increased frequency”. In addition, the “effects on anterior chamber cell counts” value in data set [1] (anterior uveitis population) is “clinically meaningful effects”. Also, the tolerability entry in data set [1] (anterior uveitis population, 0.5% drops 4 times daily, 6 weeks) is “generally well tolerated”. In addition, in data set [1] (during the study), the “rescue medication required, proportion of patients” value was found to be 20% and the “safety concerns (ocular exam scores, intra-ocular pressure, corneal thickness, visual acuity)” value is reported as “no safety concerns”. The “subjects withdrawn for an adverse event of stinging” value in data set [1] (in vivo) is on record as “One”. Moreover, the “ACC improvement of at least 1 grade, proportion of patients with successful response” value in data set [1] (time point not given) is 53%. In addition, the “reducing inflammatory cell count in the anterior chamber of the eye versus standard of care corticosteroid” value in data set [1] (topical ocular) is on record as “statistically indistinguishable from standard of care corticosteroid administration”. Besides, the “grade 0 ACC (anterior chamber cell count) treatment response, proportion of patients” value in data set [1] (week 2 study visit, mITT population) turned out to be 33%. In addition, the “sustained grade 0 ACC treatment response, proportion of patients” value in data set [1] (week 8 study visit, mITT population) came to 40%. Further, in data set [2], the “ocular itching and tearing” value is “significantly reduced”. For the same compound, the “macroscopic or microscopic evaluations” value in data set [3] (9-month, QID (OU) at 0.5%, 0.25%, 0.1% (w/v)) was “no abnormal findings”. Further, the tolerability result in data set [3] (dog, in vivo) is recorded as “well tolerated”. In “in vivo”, the “anterior eye tissue concentration” value turned out to be 17.6 µM and the concentration at 3 h came to 1200 nM. Besides, the tolerability result in data set [4] (0.5% NS2 group, 7 day QID dosing) was “well tolerated”. Moreover, in data set [4] (human, plasma, topical, 0.5% NS2, 7 day QID dosing, detection limit, each subject, read-out: plasma levels of NS2), the concentration at 7 day was under 5 ng/mL. Moreover, in data set [5], the “IL-10 (anti-inflammatory cytokine)” value was “up-regulating”; the “levels of TH1 and TH2 inflammatory cytokines” value is “significantly lowered”. The “activity versus topical ocular corticosteroid administration” value in the data set on ocular inflammation is on record as “compared favorably”.
